Calls of active or inactive are those of the source. No cut-off for these calls is given here.
Columns and labels:
[1] = Antiproliferative activity against human HUVEC cells assessed as inhibition of cell growth measured after 72 hrs by MTT assay; type: toxicity, cell-based
SK-LU-1 = assay: Antiproliferative activity against human SK-LU-1 cells assessed as inhibition of cell growth measured after 72 hrs by MTT assay; type: functional, cell-based; conditions: SK-LU-1, 72 h
NCI-H1299 = assay: Antiproliferative activity against human NCI-H1299 cells assessed as inhibition of cell growth measured after 72 hrs by MTT assay; type: functional, cell-based; conditions: NCI-H1299, 72 h
[2] = Drug accumulation in mitochondria of human HCC827 cells at 10 uM incubated for 5 mins; type: ADME; conditions: hcc827, 5 min
Mitochondrial membrane [3] = assay: Induction of mitochondrial membrane depolarization in HEK293T cells assessed as JC-1 monomer ratio by measuring increase green fluorescence at 0.25 uM incubated for 4 hrs by JC-1 staining based confocal microscopy analysis; type: cell membranes; conditions: Homo sapiens
Mitochondrial membrane [4] = assay: Induction of mitochondrial membrane depolarization in human BEAS-2B cells assessed as JC-1 monomer ratio by measuring increase green fluorescence at 0.25 uM incubated for 4 hrs by JC-1 staining based confocal microscopy analysis; type: cell membranes
HCC827 [5] = assay: Induction of mitochondrial dysfunction in human HCC827 cells assessed as cytochrome C release in cytoplasm at 0.4 uM by laser scanning confocal fluorescence microscopic analysis; type: functional, cell-based; conditions: time 24-72 hrs
HCC827 [6] = assay: Downregulation of HK-2 expression level in human HCC827 cells 0.5 uM by Western blot analysis; type: functional, cell-based; conditions: time 3-24 hrs
HCC827 [7] = assay: Downregulation of VDAC1 expression level in human HCC827 cells 0.5 uM incubated for 3 to 24 hrs in presence of BFA by Western blot analysis; type: functional, cell-based; conditions: time 3-24 hrs
HCC827 [8] = assay: Downregulation of HK-2 expression level in human HCC827 cells 0.25 to 0.5 uM incubated for 24 hrs in presence of BFA by Western blot analysis; type: functional, cell-based; conditions: dose 0.25-0.5 µM
HCC827 [9] = assay: Downregulation of TOMM20 expression level in human HCC827 cells incubated for 24 hrs by Western blot analysis; type: functional, cell-based; conditions: dose 0.25-0.5 µM
HCC827 [10] = assay: Downregulation of TOMM20 expression level in human HCC827 cells at 0.5 uM incubated for 24 hrs in presence of Baf A1 by Western blot analysis; type: functional, cell-based
HEK-293T = assay: Downregulation of […] expression level in human HEK293T cells; type: functional, cell-based; conditions: dose 0.25-0.5 µM
HCC827 [11] = assay: Induction of cell cycle arrest in human HCC827 cells assessed as accumulation of cells at G1 phase at 0.1 uM incubated for 24 hrs by PI staining based flow cytometry analysis (reference value: 66.44%); type: functional
HCC827 [12] = assay: Induction of cell cycle arrest in human HCC827 cells assessed as accumulation of cells at S phase at 0.1 uM incubated for 24 hrs by PI staining based flow cytometry analysis (reference value: 26.41%); type: functional
HCC827 [13] = assay: Induction of cell cycle arrest in human HCC827 cells assessed as accumulation of cells at S phase at 0.2 uM incubated for 24 hrs by PI staining based flow cytometry analysis (reference value: 26.41%); type: functional
HCC827 [14] = assay: Induction of ROS generation in human HCC827 cells assessed as decrease in NADH content at 1 uM incubated for 4 hrs by absorbance based analysis; type: functional, cell-based
HCC827 [15] = assay: Induction of ROS generation in human HCC827 cells assessed as fold change at 1 uM incubated for 4 hrs in presence of VC by DCFH-DA staining based by absorbance based laser confocal microscopic analysis (reference value: 2.67); type: functional
HCC827 [16] = assay: Induction of ferroptosis in human HCC827 cells assessed as increase in lipid peroxidation level incubated for 24 hrs by absorbance based analysis; type: functional, cell-based; conditions: dose 0.25-0.5 µM
HCC827 [17] = assay: Induction of ferroptosis in human HCC827 cells assessed as increase in MDA content incubated for 24 hrs by absorbance based analysis; type: functional, cell-based; conditions: dose 0.25-0.5 µM
HCC827 [18] = assay: Induction of ferroptosis in human HCC827 cells assessed as decrease in xCT expression incubated for 24 hrs; type: functional, cell-based; conditions: dose 0.25-0.5 µM
HCC827 [19] = assay: Induction of mitochondrial dysfunction in human HCC827 cells assessed as cristae reduction by TEM analysis; type: functional, cell-based
HCC827 [20] = assay: Induction of apoptosis in human HCC827 cells assessed as viable cells at 1.0 uM measured after 48 hrs by annexin V and PI staining based flow cytometry analysis (reference value: 96.74%); type: functional; conditions: read-out: Activity
HCC827 [21] = assay: Induction of apoptosis in human HCC827 cells assessed as early apoptotic cells at 0.25 uM measured after 48 hrs by annexin V and PI staining based flow cytometry analysis (reference value: 0.70%); type: functional
HCC827 [22] = assay: Induction of apoptosis in human HCC827 cells assessed as late apoptotic cells at 1 uM measured after 48 hrs by annexin V and PI staining based flow cytometry analysis (reference value: 1.29%); type: functional
HCC827 [23] = assay: Induction of apoptosis in human HCC827 cells assessed as viable cells at 1 uM measured after 48 hrs by annexin V and PI staining based flow cytometry analysis (reference value: 95.10%); type: functional; conditions: read-out: Activity
HCC827 [24] = assay: Induction of apoptosis in human HCC827 cells assessed as early apoptotic cells at 1 uM measured after 36 hrs by annexin V and PI staining based flow cytometry analysis (reference value: 1.80%); type: functional
HCC827 [25] = assay: Antiproliferative activity against human HCC827 cells assessed as cell viability at 1 uM measured after 48 hrs in presence of ferrostatin-1 by MTT assay relative to control; type: functional; conditions: read-out: Activity
HCC827 [26] = assay: Antiproliferative activity against human HCC827 cells assessed as cell viability at 1 uM measured after 48 hrs in presence of deferoxamine by MTT assay relative to control; type: functional; conditions: read-out: Activity
HCC827 [27] = assay: Antiproliferative activity against human HCC827 cells assessed as increase in cell viability at 1 uM measured after 48 hrs in presence of Rapa by MTT assay; type: functional, cell-based
HCC827 [28] = assay: Effect on ATP5A expression in human HCC827 cells at 0.25 to 0.5 uM; type: functional, cell-based; conditions: dose 0.25-0.5 µM
HCC827 [29] = assay: Downregulation of SDHB expression in human HCC827 cells at 0.25 to 0.5 uM; type: functional, cell-based; conditions: dose 0.25-0.5 µM
HCC827 [30] = assay: Downregulation of SDHB expression in human HCC827 cells incubated for 24 hrs by Western blot analysis; type: functional, cell-based; conditions: dose 0.25-0.5 µM
[31] = Toxicity in male Kunming mouse assessed as animal death at 70 mg/kg, ip measured every two days for 7 days; type: organism-based; conditions: in vivo, 168 h, time 7 day
HCC827 [32] = assay: Antitumor activity against human HCC827 cells xenografted in female nude mouse model assessed as suppression of tumor growth at 5 to 10 mg/kg, ip measured every two days for 14 days; type: functional, organism-based; conditions: dose 5-10 mg/kg, time 14.0 day
HCC827 [33] = assay: Antimetastatic activity against human HCC827 cells xenografted in female nude mouse model assessed as decrease in vimentin level at 5 to 10 mg/kg, ip by Western blot analysis; type: functional, organism-based; conditions: dose 5-10 mg/kg
HeLa [34] = assay: Induction of mitophagy in human HeLa cells harbouring mCherry-GFP tag assessed as reduction in GFP fluorescence at 0.5 uM incubated for 24 hrs by confocal microscopy analysis; type: functional, cell-based
HeLa [35] = assay: Induction of mitophagy in human HeLa cells assessed as colocalization of mitochondria and lysosomes at 0.5 uM by lysotracker red staining based confocal microscopy analysis; type: functional, cell-based

SMILES: Cc1ccc([P+](CCCCCCCCCCO)(c2ccc(C)cc2)c2ccc(C)cc2)cc1.[Br-]
- IC50 at 72 h [1]: 1800 nM
- IC50 (SK-LU-1): 230 nM
- IC50 (NCI-H1299): 210 nM
- Drug uptake [2]: 93%
- Activity (Mitochondrial membrane [3]): inactive
- Activity (Mitochondrial membrane [4]): inactive
- Activity (HCC827 [5]): Time-dependent-effect
- Activity (HCC827 [6]): Time-dependent-effect
- Activity (HCC827 [7]): inactive
- Activity (HCC827 [8]): inactive
- Activity (HCC827 [9]): Dose-dependent-effect
- Activity (HCC827 [10]): inactive
- Activity (HEK-293T): Dose-dependent-effect
- Activity (HCC827 [11]): 71.14%
- Activity (HCC827 [12]): 24.03%
- Activity (HCC827 [13]): 19.35%
- Activity (HCC827 [14]): Active
- Activity (HCC827 [15]): 0.8
- Activity (HCC827 [16]): Dose-dependent-effect
- Activity (HCC827 [17]): Dose-dependent-effect
- Activity (HCC827 [18]): Dose-dependent-effect
- Activity (HCC827 [19]): Active
- viability at 1 µM (HCC827 [20]): 82.8%
- Activity (HCC827 [21]): 1.16%
- Activity (HCC827 [22]): 9.96%
- viability at 1 µM (HCC827 [23]): 91.9%
- Activity (HCC827 [24]): 0.18%
- viability at 1 µM (HCC827 [25]): 51.4%
- viability at 1 µM (HCC827 [26]): 51.4%
- Activity (HCC827 [27]): inactive
- Activity (HCC827 [28]): Active
- Activity (HCC827 [29]): Active
- Activity (HCC827 [30]): Active
- Activity [31]: Toxic
- Activity (HCC827 [32]): Active
- Activity (HCC827 [33]): Active
- Activity (HeLa [34]): Active
- Activity (HeLa [35]): Active

Source: ChEMBL document CHEMBL6182916, “Unexpected Discovery of a Novel Triphenylphosphonium Alkylalcohol That Triggers Cancer Cell Death via Mitophagy and Ferroptosis” (J Med Chem, 2025)
